Data published in patent US20240425523A1, “Compounds for the Degradation of EGFR Kinase” (Beigene Switzerland GMBH, priority 2023, published 2024).

Legend:
Format in all cases: cell-based
[1] = target: p-EGFR Del19/C797S (H1975-clone #23 cells) (Homo sapiens, UniProt P00533); assay: Cell p-EGFR inhibition assay, HTRF, H1975-clone#23 (DEL19/C797S) cells; conditions: 16 h treatment; for Imax (%): maximum percentage of pEGFR inhibition; for IC50: pEGFR inhibition
Method in brief: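 Phospho-EGFR read by overnight HTRF on lysates, normalized to DMSO-treated high control; IC50, Hill slope and Imax fitted. Compounds were applied for 16 h (10 uM top, 5-fold steps, 8 doses) to an H1975 single clone carrying only exogenous Del19/C797S EGFR after sgRNA knockout of endogenous copies.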

[2] = target: T1, EGFR L858R (BaF3-L858R cells) (Homo sapiens, UniProt P00533, L858R); assay: Cell degradation of EGFR, HTRF assay, BaF3-L858R cells; conditions: 16 h treatment; for DC50: EGFR degradation; for Dmax: maximum percentage of degradation
T1 construct: host or cells: BaF3
Method in brief: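 BaF3-L858R cells treated 16 h at 37° C, 5% CO2 with compound (top 10 uM final, 5-fold, 8 doses, 0.1% DMSO). DC50 from four-parameter fit; Dmax is maximum percent degradation.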

[3] = target: T2, EGFR-L858R/C797S (H1975-clone #8 cells) (Homo sapiens, UniProt P00533, C797S/L858R); assay: Cell degradation of EGFR, HTRF assay, H1975-clone#8 (L858R/C797S) cells; conditions: 16 h treatment; for DC50: EGFR degradation; for Dmax: maximum percentage of degradation
T2 construct: expressed in transfected cells; host or cells: H1975 (endogenous EGFR knocked out, clone #8)

[4] = target: T3, p-EGFR L858R (BaF3-L858R cells) (Homo sapiens, UniProt P00533, L858R); assay: Cell p-EGFR inhibition assay, HTRF, BaF3-L858R cells; conditions: 16 h treatment; for Imax (%): maximum percentage of pEGFR inhibition; for IC50: pEGFR inhibition
T3 construct: host or cells: BaF3
Method in brief: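 BaF3-L858R cells treated 16 h at 37 °C, 5% CO2 with compound from 10 uM top, 5-fold dilutions, 8 doses, in 0.1% DMSO medium. Lysates read overnight by HTRF p-EGFR antibodies; IC50 fitted to four-parameter curve against DMSO high control.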

## COCCn1nc(C)c2c1OC[C@H]1CC[C@H](C1)CN1/C(=N/C(=O)c3cc(C)nc-2c3)Nc2ccc(N3CCN(C4CCN(c5cc(F)c([C@H]6CCC(=O)NC6=O)c(F)c5)CC4)[C@@H](COC)C3)cc21 [Example 160, (R)-3-(2,6-difluoro-4-(4-((R)-4-((7^1R,7^3S,E)-1^1-(2-methoxyethyl)-1^3,2^6-dimethyl-3-oxo-5^2,5^3-dihydro-1^1H,5^1H-9-oxa-4-aza-5(2,1)-benzo[d]imidazola-2(2,4)-pyridina-1(4,5)-pyrazola-7(1,3)-cyclopentanacyclononaphane-5^6-yl)-2-(methoxymethyl)piperazin-1-yl)piperidin-1-yl)phenyl)piperidine-2,6-dione]
[1]
  Imax (%): 95.87%
  IC50: 0.59 nM
[2]
  DC50: 3.08 nM
  Dmax: 76.5%
[3]
  DC50: 3.01 nM
  Dmax: 88.2%
[4]
  Imax (%): 94.19%
  IC50: 3.02 nM

## COCCn1nc(C)c2c1OC[C@H]1CC[C@H](C1)CN1/C(=N/C(=O)c3cc(C)nc-2c3)Nc2ccc(N3CCN(C4CCN(c5cc(F)c([C@H]6CCC(=O)NC6=O)c(F)c5)CC4)CC3)cc21 [Example 161, (R)-3-(2,6-difluoro-4-(4-(4-((7^1R,7^3S,E)-1^1-(2-methoxyethyl)-1^3,2^6-dimethyl-3-oxo-5^2,5^3-dihydro-1^1H,5^1H-9-oxa-4-aza-5(2,1)-benzo[d]imidazola-2(2,4)-pyridina-1(4,5)-pyrazola-7(1,3)-cyclopentanacyclononaphane-5^6-yl)piperazin-1-yl)piperidin-1-yl)phenyl)piperidine-2,6-dione]
[1]
  Imax (%): 95.04%
  IC50: 0.49 nM
[2]
  DC50: 7.2 nM
  Dmax: 91.4%
[3]
  DC50: 2.96 nM
  Dmax: 89.3%
[4]
  Imax (%): 93.23%
  IC50: 4.51 nM

## Cc1cc2cc(n1)-c1cnn(C)c1OC[C@H]1CC[C@H](C1)CN1/C(=N/C2=O)Nc2ccc(N3CCN(C4CCN(c5ccc([C@H]6CCC(=O)NC6=O)nc5C)CC4)[C@H](C)C3)cc21 [Example 162, 3-(5-(4-((R)-4-((7^1R,7^3S,E)-1^1,2^6-dimethyl-3-oxo-5^2,5^3-dihydro-1^1H,5^1H-9-oxa-4-aza-5(2,1)-benzo[d]imidazola-2(2,4)-pyridina-1(4,5)-pyrazola-7(1,3)-cyclopentanacyclononaphane-5^6-yl)-2-methylpiperazin-1-yl)piperidin-1-yl)-6-methylpyridin-2-yl)piperidine-2,6-dione]
[1]
  Imax (%): 95.16%
  IC50: 0.21 nM
[2]
  DC50: 4.86 nM
  Dmax: 88.6%
[3]
  DC50: 3.14 nM
  Dmax: 85.4%
[4]
  Imax (%): 93.37%
  IC50: 3.68 nM

## Cc1cc2cc(n1)-c1c(C)nn(C)c1OC[C@H]1CC[C@H](C1)CN1/C(=N/C2=O)Nc2ccc(N3CCN(C4CCN(c5cc(F)c([C@H]6CCC(=O)NC6=O)c(F)c5)CC4)[C@@H](CC#N)C3)cc21 [Example 163, 2-((S)-1-(1-(4-((R)-2,6-dioxopiperidin-3-yl)-3,5-difluorophenyl)piperidin-4-yl)-4-((7^1R,7^3S,E)-1^1,1^3,2^6-trimethyl-3-oxo-5^2,5^3-dihydro-1^1H,5^1H-9-oxa-4-aza-5(2,1)-benzo[d]imidazola-2(2,4)-pyridina-1(4,5)-pyrazola-7(1,3)-cyclopentanacyclononaphane-5^6-yl)piperazin-2-yl)acetonitrile]
[1]
  Imax (%): 96.05%
  IC50: 0.6 nM
[2]
  DC50: 4.4 nM
  Dmax: 88.1%
[3]
  DC50: 2.97 nM
  Dmax: 82.5%
[4]
  Imax (%): 94.53%
  IC50: 2.24 nM

## Cc1cc2cc(n1)-c1c(C)nn(C)c1OC[C@H]1CC[C@H](C1)CN1/C(=N/C2=O)Nc2ccc(N3CCN(C4CCN(c5cc(F)c([C@H]6CCC(=O)NC6=O)c(F)c5)CC4)C(=O)C3)cc21 [Example 164, (R)-3-(2,6-difluoro-4-(4-(2-oxo-4-((7^1R,7^3S,E)-1^1,1^3,2^6-trimethyl-3-oxo-5^2,5^3-dihydro-1^1H,5^1H-9-oxa-4-aza-5(2,1)-benzo[d]imidazola-2(2,4)-pyridina-1(4,5)-pyrazola-7(1,3)-cyclopentanacyclononaphane-5^6-yl)piperazin-1-yl)piperidin-1-yl)phenyl)piperidine-2,6-dione]
[1]
  Imax (%): 96.95%
  IC50: 0.254 nM
[2]
  DC50: 2.79 nM
  Dmax: 92.7%
[3]
  DC50: 1.19 nM
  Dmax: 88.7%
[4]
  Imax (%): 94.91%
  IC50: 1.85 nM

## COC[C@H]1CN(c2cc3c(cc2F)N/C2=N\C(=O)c4cc(C)nc(c4)-c4c(C)nn(C)c4OC[C@H]4CC[C@H](C4)CN23)CCN1C1CCN(c2cc(F)c([C@H]3CCC(=O)NC3=O)c(F)c2)CC1 [Example 165, (R)-3-(2,6-difluoro-4-(4-((R)-4-((7^1R,7^3S,E)-5^5-fluoro-1^1,1^3,2^6-trimethyl-3-oxo-5^2,5^3-dihydro-1^1H,5^1H-9-oxa-4-aza-5(2,1)-benzo[d]imidazola-2(2,4)-pyridina-1(4,5)-pyrazola-7(1,3)-cyclopentanacyclononaphane-5^6-yl)-2-(methoxymethyl)piperazin-1-yl)piperidin-1-yl)phenyl)piperidine-2,6-dione]
[1]
  Imax (%): 94.62%
  IC50: 1.34 nM
[2]
  DC50: 3.32 nM
  Dmax: 91.1%
[3]
  DC50: 4.45 nM
  Dmax: 88.7%
[4]
  Imax (%): 93.3%
  IC50: 4.83 nM

## Cc1cc2cc(n1)-c1c(C)nn(C)c1OC[C@H]1CC[C@H](C1)CN1/C(=N/C2=O)Nc2ccc(N3CCC(C)(CN(C)C4CCN(c5cc(F)c([C@H]6CCC(=O)NC6=O)c(F)c5)CC4)CC3)cc21 [Example 168, (R)-3-(2,6-difluoro-4-(4-(methyl((4-methyl-1-((7^1R,7^3S,E)-1^1,1^3′2^6-trimethyl-3-oxo-5^2′5^3-dihydro-1^1H,5^1H-9-oxa-4-aza-5(2,1)-benzo[d]imidazola-2(2,4)-pyridina-1(4,5)-pyrazola-7(1,3)-cyclopentanacyclononaphane-5^6-yl)piperidin-4-yl)methyl)amino)piperidin-1-yl)phenyl)piperidine-2,6-dione]
[1]
  Imax (%): 102.22%
  IC50: 2.56 nM
[2]
  DC50: 2.96 nM
  Dmax: 80.9%
[3]
  DC50: 3.07 nM
  Dmax: 81.1%
[4]
  Imax (%): 100.64%
  IC50: 8.76 nM

## COC[C@@H]1CN(c2cc3c(cc2F)N/C2=N\C(=O)c4cc(C)nc(c4)-c4c(C)nn(C)c4OC[C@H]4CC[C@H](C4)CN23)CCN1C1CCN(c2cc(F)c([C@H]3CCC(=O)NC3=O)c(F)c2)CC1 [Example 169, (R)-3-(2,6-difluoro-4-(4-((S)-4-((7^1R,7^3S,E)-5^5-fluoro-1^1,1^3,2^6-trimethyl-3-oxo-5^2,5^3-dihydro-1^1H,5^1H-9-oxa-4-aza-5(2,1)-benzo[d]imidazola-2(2,4)-pyridina-1(4,5)-pyrazola-7(1,3)-cyclopentanacyclononaphane-5^6-yl)-2-(methoxymethyl)piperazin-1-yl)piperidin-1-yl)phenyl)piperidine-2,6-dione]
[1]
  Imax (%): 102.95%
  IC50: 2.5 nM
[2]
  DC50: 2.62 nM
  Dmax: 86.5%
[3]
  DC50: 2.81 nM
  Dmax: 91.6%
[4]
  Imax (%): 100.12%
  IC50: 8.76 nM

## COC[C@H]1CN(c2cc3c(cc2C)N/C2=N\C(=O)c4cc(C)nc(c4)-c4c(C)nn(C)c4OC[C@H]4CC[C@H](C4)CN23)CCN1C1CCN(c2cc(F)c([C@H]3CCC(=O)NC3=O)c(F)c2)CC1 [Example 172, (R)-3-(2,6-difluoro-4-(4-((R)-2-(methoxymethyl)-4-((7^1R,7^3S,E)-1^1,1^3,2^6° 5^5-tetramethyl-3-oxo-5^2,5^3-dihydro-1^1H,5^1H-9-oxa-4-aza-5(2,1)-benzo[d]imidazola-2(2,4)-pyridina-1(4,5)-pyrazola-7(1,3)-cyclopentanacyclononaphane-5^6-yl)piperazin-1-yl)piperidin-1-yl)phenyl)piperidine-2,6-dione]
[1]
  Imax (%): 103.44%
  IC50: 2.74 nM
[2]
  DC50: 5.09 nM
  Dmax: 84.8%
[3]
  DC50: 0.909 nM
  Dmax: 85.6%
[4]
  Imax (%): 100%
  IC50: 6.2 nM

## COC[C@@H]1CN(c2cc3c(cc2C)N/C2=N\C(=O)c4cc(C)nc(c4)-c4c(C)nn(C)c4OC[C@H]4CC[C@H](C4)CN23)CCN1C1CCN(c2cc(F)c([C@H]3CCC(=O)NC3=O)c(F)c2)CC1 [Example 173, (R)-3-(2,6-difluoro-4-(4-((S)-2-(methoxymethyl)-4-((7^1R,7^3S,E)-1^1,1^3,2^6,5^5-tetramethyl-3-oxo-5^2,5^3-dihydro-1^1H,5^1H-9-oxa-4-aza-5(2,1)-benzo[d]imidazola-2(2,4)-pyridina-1(4,5)-pyrazola-7(1,3)-cyclopentanacyclononaphane-5^6-yl)piperazin-1-yl)piperidin-1-yl)phenyl)piperidine-2,6-dione]
[1]
  Imax (%): 103.01%
  IC50: 3.94 nM
[2]
  DC50: 4.28 nM
  Dmax: 95.2%
[3]
  DC50: 4.31 nM
  Dmax: 91.4%
[4]
  Imax (%): 98.39%
  IC50: 11.5 nM
